Tests used:
[1] = MRT (0 to t) in Sprague-Dawley rat at 5 mg/kg,po; assay type: ADME, organism-based; details: in vivo
[2] = Acute toxicity in mouse at 1.2 g/Kg,IG assessed as liver damage by H and E staining based analysis; details: in vivo, po, 1200 mg/kg
[3] = AUC (0 to infinity) in Sprague-Dawley rat at 5 mg/kg,po; assay type: ADME, organism-based; parameters: time infinity, dose 5 mg/kg, route po; details: in vivo
[4] = Acute toxicity in mouse at 1.2 g/Kg,IG assessed as kidney damage by H and E staining based analysis; details: in vivo, po, 1200 mg/kg
[5] = tested on: Human immunodeficiency virus 1; assay: Antiviral activity against HIV-1 ROD infected in human MT4 cells assessed as reduction in viral replication by MTT assay; assay type: functional, organism-based
[6] = tested on: Human immunodeficiency virus 1; assay: Antiviral activity against HIV-1 K103N-Y181C mutant infected in human MT4 cells assessed as reduction in viral replication by MTT assay; assay type: functional, organism-based; details: Human immunodeficiency virus 1, K103N-Y181C mutant
[7] = Tmax in Sprague-Dawley rat at 1 mg/kg,iv; assay type: ADME, organism-based; details: in vivo
Cytochrome P450 3A4 [8] = target: T1, Cytochrome P450 3A4 (Homo sapiens, UniProt P08684); assay: Inhibition of CYP3A4M (unknown origin); assay type: ADME
[9] = Half life in Sprague-Dawley rat at 1 mg/kg,iv; assay type: ADME, organism-based; details: in vivo
[10] = tested on: Human immunodeficiency virus 1; assay: Antiviral activity against HIV-1 E138K mutant infected in human MT4 cells assessed as reduction in viral replication by MTT assay; assay type: functional, organism-based; details: Human immunodeficiency virus 1, E138K mutant
[11] = tested on: Human immunodeficiency virus 1; assay: Antiviral activity against HIV-1 Y181C mutant infected in human MT4 cells assessed as reduction in viral replication by MTT assay; assay type: functional, organism-based; details: Human immunodeficiency virus 1, Y181C mutant
Cytochrome P450 2C9 = Cytochrome P450 2C9 (Homo sapiens, UniProt P11712); assay: Inhibition of CYP2C9 (unknown origin); assay type: ADME
[12] = target: Human immunodeficiency virus type 1 reverse transcriptase (Human immunodeficiency virus 1, UniProt Q72547); assay: Inhibition of wild type HIV-1 Reverse transcriptase
[13] = Half life in Sprague-Dawley rat at 5 mg/kg,po; assay type: ADME, organism-based; details: in vivo
[14] = Acute toxicity in mouse at 1.2 g/Kg,IG assessed as spleen damage by H and E staining based analysis; details: in vivo, po, 1200 mg/kg
[15] = Selectivity index, ratio of CC50 for cytotoxicity against human MT4 cells to EC50 of Anti-HIV activity against HIV-1 IIIB infected in human MT4 cells; assay type: toxicity, cell-based; details: read-out: Ratio CC50/EC50
[16] = Acute toxicity in mouse at 1.2 g/Kg,IG assessed as brain damage by H and E staining based analysis; assay type: tissue-based; details: in vivo, po, 1200 mg/kg
[17] = Clearance in Sprague-Dawley rat at 1 mg/kg,iv; assay type: ADME, organism-based; details: in vivo
[18] = MRT (0 to infinity) in Sprague-Dawley rat at 1 mg/kg,iv; assay type: ADME, organism-based; details: in vivo
[19] = Cmax in Sprague-Dawley rat at 5 mg/kg,po; assay type: ADME, organism-based; parameters: dose 5 mg/kg, route po; details: in vivo
[20] = tested on: Human immunodeficiency virus 1; assay: Antiviral activity against HIV-1 Y188L mutant infected in human MT4 cells assessed as reduction in viral replication by MTT assay; assay type: functional, organism-based; details: Human immunodeficiency virus 1, Y188L mutant
[21] = Acute toxicity in mouse at 1.2 g/Kg,IG assessed as lung damage by H and E staining based analysis; details: in vivo, po, 1200 mg/kg
[22] = AUC (0 to t) in Sprague-Dawley rat at 1 mg/kg,iv; assay type: ADME, organism-based; parameters: dose 1 mg/kg, route iv; details: in vivo
[23] = Cmax in Sprague-Dawley rat at 1 mg/kg,iv; assay type: ADME, organism-based; parameters: dose 1 mg/kg, route iv; details: in vivo
Cytochrome P450 2D6 = Cytochrome P450 2D6 (Homo sapiens, UniProt P10635); assay: Inhibition of CYP2D6 (unknown origin); assay type: ADME
Cytochrome P450 2C19 = Cytochrome P450 2C19 (Homo sapiens, UniProt P33261); assay: Inhibition of CYP2C19 (unknown origin); assay type: ADME
[24] = Acute toxicity in mouse at 1.2 g/Kg,IG assessed as change in body weight; details: in vivo, po, 1200 mg/kg
[25] = AUC (0 to t) in Sprague-Dawley rat at 5 mg/kg,po; assay type: ADME, organism-based; parameters: dose 5 mg/kg, route po; details: in vivo
[26] = Tmax in Sprague-Dawley rat at 5 mg/kg,po; assay type: ADME, organism-based; details: in vivo
[27] = tested on: Human immunodeficiency virus 1; assay: Antiviral activity against HIV-1 IIIB infected in human MT4 cells assessed as reduction in viral replication by MTT assay; assay type: functional, organism-based; details: Human immunodeficiency virus 1, IIIB
[28] = AUC (0 to infinity) in Sprague-Dawley rat at 1 mg/kg,iv; assay type: ADME, organism-based; parameters: time infinity, dose 1 mg/kg, route iv; details: in vivo
[29] = MRT (0 to infinity) in Sprague-Dawley rat at 5 mg/kg,po; assay type: ADME, organism-based; details: in vivo
[30] = tested on: Human immunodeficiency virus 1; assay: Antiviral activity against HIV-1 K103N mutant infected in human MT4 cells assessed as reduction in viral replication by MTT assay; assay type: functional, organism-based; details: Human immunodeficiency virus 1, K103N mutant
[31] = Acute toxicity in mouse at 1.2 g/Kg,IG assessed as behavioral abnormalities; details: in vivo, po, 1200 mg/kg
[32] = MRT (0 to t) in Sprague-Dawley rat at 1 mg/kg,iv; assay type: ADME, organism-based; details: in vivo
[33] = target: Voltage-gated inwardly rectifying potassium channel KCNH2 (Homo sapiens, UniProt Q12809); assay: Inhibition of human ERG potassium channel expressed in CHO cells by automated patch clamp electrophysiological assay; assay type: toxicity, cell-based
[34] = Acute toxicity in mouse at 1.2 g/Kg,IG assessed as heart damage by H and E staining based analysis; assay type: tissue-based; details: in vivo, po, 1200 mg/kg
[35] = tested on: Human immunodeficiency virus 1; assay: Antiviral activity against HIV-1 L100I mutant infected in human MT4 cells assessed as reduction in viral replication by MTT assay; assay type: functional, organism-based; details: Human immunodeficiency virus 1, L100I mutant
Cytochrome P450 3A4 [36] = target: T1, Cytochrome P450 3A4; assay: Inhibition of CYP3A4T (unknown origin); assay type: ADME
[37] = Clearance in Sprague-Dawley rat at 5 mg/kg,po; assay type: ADME, organism-based; details: in vivo
Cytochrome P450 1A2 = target: T2, Cytochrome P450 1A2 (Homo sapiens, UniProt P05177); assay: Inhibition of CYP1A2 (unknown origin); assay type: ADME
T2 sequence (P05177 whole entry): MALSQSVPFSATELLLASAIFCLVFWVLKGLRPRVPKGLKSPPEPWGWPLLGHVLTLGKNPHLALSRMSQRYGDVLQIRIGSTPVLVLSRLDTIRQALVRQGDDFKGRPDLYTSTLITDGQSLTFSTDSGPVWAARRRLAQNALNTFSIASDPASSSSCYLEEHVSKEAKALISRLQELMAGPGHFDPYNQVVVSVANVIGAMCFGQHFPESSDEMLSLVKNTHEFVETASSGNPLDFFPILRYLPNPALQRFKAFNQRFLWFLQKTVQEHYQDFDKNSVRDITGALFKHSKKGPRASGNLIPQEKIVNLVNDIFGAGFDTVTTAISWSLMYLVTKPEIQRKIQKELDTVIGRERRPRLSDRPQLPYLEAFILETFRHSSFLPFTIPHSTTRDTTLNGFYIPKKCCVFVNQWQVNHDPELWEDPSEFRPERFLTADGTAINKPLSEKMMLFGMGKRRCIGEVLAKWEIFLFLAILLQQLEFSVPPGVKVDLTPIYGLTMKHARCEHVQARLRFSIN

[38] = Acute toxicity in mouse at 1.2 g/Kg,IG assessed as mouse death; details: in vivo, po, 1200 mg/kg
[39] = tested on: Human immunodeficiency virus 1; assay: Antiviral activity against HIV-1 F227L-V106A mutant infected in human MT4 cells assessed as reduction in viral replication by MTT assay; assay type: functional, organism-based; details: Human immunodeficiency virus 1, F227L-V106A mutant

T1 sequence (P08684 whole entry): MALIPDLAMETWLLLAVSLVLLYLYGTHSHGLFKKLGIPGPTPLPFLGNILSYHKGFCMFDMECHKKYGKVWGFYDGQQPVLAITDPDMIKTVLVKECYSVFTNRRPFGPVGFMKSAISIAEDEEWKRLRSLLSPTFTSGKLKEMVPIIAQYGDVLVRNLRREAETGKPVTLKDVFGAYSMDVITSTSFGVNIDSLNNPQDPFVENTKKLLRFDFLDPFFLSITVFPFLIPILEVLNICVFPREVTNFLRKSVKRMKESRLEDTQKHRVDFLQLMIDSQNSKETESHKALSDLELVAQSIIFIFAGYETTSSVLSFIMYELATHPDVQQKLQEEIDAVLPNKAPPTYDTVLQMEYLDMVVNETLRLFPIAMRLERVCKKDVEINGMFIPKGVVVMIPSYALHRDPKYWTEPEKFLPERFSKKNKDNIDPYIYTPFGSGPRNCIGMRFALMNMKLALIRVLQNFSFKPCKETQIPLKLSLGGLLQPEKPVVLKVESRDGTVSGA
Sequence of Cytochrome P450 2C19 (P33261 whole entry): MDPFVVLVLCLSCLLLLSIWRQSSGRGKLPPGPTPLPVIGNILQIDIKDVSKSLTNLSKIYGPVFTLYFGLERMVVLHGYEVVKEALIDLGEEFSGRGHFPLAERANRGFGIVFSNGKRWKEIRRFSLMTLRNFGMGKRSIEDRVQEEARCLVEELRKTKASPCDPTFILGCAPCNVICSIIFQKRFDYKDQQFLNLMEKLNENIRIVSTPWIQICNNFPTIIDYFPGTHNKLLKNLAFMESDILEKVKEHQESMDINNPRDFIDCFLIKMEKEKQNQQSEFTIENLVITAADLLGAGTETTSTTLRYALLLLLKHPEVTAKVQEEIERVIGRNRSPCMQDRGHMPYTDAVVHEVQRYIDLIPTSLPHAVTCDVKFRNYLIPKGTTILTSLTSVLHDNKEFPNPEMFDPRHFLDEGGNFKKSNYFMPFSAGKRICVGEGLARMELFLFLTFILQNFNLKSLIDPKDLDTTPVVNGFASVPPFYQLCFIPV
Sequence of Voltage-gated inwardly rectifying potassium channel KCNH2 (Q12809 whole entry): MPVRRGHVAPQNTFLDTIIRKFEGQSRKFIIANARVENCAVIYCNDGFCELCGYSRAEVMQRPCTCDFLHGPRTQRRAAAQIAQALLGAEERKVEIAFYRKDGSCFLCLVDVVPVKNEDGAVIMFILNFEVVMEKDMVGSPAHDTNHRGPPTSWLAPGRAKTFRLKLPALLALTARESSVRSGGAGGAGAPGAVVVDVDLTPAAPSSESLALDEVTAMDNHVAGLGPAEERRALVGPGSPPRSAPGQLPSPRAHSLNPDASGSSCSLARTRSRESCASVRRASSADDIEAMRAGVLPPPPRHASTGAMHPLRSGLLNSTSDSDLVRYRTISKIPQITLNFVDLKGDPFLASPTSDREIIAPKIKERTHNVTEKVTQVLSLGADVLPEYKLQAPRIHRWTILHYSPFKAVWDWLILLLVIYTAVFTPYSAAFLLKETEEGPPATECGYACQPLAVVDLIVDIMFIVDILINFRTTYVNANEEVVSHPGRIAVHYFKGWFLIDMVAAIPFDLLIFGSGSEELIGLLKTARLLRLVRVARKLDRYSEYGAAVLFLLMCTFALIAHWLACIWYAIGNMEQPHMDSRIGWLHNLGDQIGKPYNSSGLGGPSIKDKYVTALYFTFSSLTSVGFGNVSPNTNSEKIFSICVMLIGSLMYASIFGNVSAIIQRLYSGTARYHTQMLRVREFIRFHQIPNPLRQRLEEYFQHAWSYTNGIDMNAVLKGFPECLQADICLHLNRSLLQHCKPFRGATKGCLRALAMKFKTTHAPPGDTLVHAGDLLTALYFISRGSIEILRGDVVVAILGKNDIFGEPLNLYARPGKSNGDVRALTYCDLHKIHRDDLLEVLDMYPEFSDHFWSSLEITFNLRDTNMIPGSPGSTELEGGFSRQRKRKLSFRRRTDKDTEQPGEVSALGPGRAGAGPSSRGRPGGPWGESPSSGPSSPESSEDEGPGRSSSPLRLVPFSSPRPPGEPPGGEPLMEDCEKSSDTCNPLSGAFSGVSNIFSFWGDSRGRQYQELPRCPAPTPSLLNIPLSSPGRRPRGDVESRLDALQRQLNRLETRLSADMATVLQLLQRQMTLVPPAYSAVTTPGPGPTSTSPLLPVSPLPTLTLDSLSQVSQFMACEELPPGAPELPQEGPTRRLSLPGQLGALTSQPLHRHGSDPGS
Sequence of Cytochrome P450 2C9 (P11712 whole entry): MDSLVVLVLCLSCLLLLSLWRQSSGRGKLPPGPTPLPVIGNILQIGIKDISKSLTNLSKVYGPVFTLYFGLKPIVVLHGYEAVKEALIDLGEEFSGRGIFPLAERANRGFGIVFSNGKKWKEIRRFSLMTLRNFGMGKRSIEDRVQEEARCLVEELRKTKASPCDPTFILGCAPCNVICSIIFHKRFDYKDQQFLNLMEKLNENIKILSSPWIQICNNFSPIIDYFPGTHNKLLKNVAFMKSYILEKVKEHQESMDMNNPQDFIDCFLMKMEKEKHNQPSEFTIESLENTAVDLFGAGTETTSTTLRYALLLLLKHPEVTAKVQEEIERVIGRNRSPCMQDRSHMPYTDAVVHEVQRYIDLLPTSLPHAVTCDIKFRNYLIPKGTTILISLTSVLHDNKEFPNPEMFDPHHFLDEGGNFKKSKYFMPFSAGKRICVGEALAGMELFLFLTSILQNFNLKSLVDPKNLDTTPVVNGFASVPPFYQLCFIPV
Sequence of Cytochrome P450 2D6 (P10635 whole entry): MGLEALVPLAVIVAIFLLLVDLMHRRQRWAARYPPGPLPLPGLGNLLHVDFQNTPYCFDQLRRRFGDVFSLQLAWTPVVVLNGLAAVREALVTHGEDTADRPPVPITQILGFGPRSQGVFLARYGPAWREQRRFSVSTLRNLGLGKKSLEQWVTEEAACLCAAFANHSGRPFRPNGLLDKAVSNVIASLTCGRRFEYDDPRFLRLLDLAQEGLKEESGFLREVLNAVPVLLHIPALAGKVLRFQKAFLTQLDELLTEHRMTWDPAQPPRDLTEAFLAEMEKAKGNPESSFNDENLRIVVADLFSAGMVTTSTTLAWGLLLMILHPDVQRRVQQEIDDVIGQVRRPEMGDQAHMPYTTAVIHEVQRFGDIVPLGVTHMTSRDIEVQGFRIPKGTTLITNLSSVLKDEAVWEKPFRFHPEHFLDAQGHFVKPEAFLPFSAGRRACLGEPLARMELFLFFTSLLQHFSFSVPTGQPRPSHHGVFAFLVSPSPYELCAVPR

Cc1cccc(-c2cc(C#N)cc(Oc3c(C(F)(F)F)ccn(Cc4n[nH]c(=O)n4C)c3=O)c2)c1
MRT last [1]: 6.79 h | Activity [2]: Non-Toxic | AUC(0-inf) [3]: 6590 ng·h/mL | Activity [4]: Non-Toxic | EC50 [5]: > 35 µM | EC50 [6]: 260 nM | Tmax [7]: 4.8 min | IC50 (Cytochrome P450 3A4 [8]): > 50 µM | half-life [9]: 114 min | EC50 [10]: 25 nM | EC50 [11]: 58 nM | IC50 (Cytochrome P450 2C9): 38.3 µM | IC50 [12]: 41 nM | half-life [13]: 507 min | Activity [14]: Non-Toxic | selectivity ratio [15]: 2020 | Activity [16]: Non-Toxic | clearance [17]: 17.9 mL/min/kg | MRT inf [18]: 2.48 h | Cmax [19]: 583 ng/mL | EC50 [20]: 760 nM | Activity [21]: Non-Toxic | AUC(0-t) [22]: 892 ng·h/mL | Cmax [23]: 469 ng/mL | IC50 (Cytochrome P450 2D6): > 50 µM | IC50 (Cytochrome P450 2C19): 28.6 µM | Activity [24]: Non-Toxic | AUC(0-t) [25]: 4980 ng·h/mL | Tmax [26]: 6.67 h | EC50 [27]: 13 nM | AUC(0-inf) [28]: 940 ng·h/mL | MRT inf [29]: 13.9 h | EC50 [30]: 13 nM | Activity [31]: Non-Toxic | MRT last [32]: 2.03 h | IC50 [33]: > 200 µM | Activity [34]: Non-Toxic | EC50 [35]: 24 nM | IC50 (Cytochrome P450 3A4 [36]): 25.3 µM | CL/F [37]: 13.2 mL/min/kg | IC50 (Cytochrome P450 1A2): > 50 µM | Activity [38]: Non-Toxic | EC50 [39]: 27.5 µM

Source: ChEMBL document CHEMBL5113480, “Discovery of novel biphenyl-substituted pyridone derivatives as potent non-nucleoside reverse transcriptase inhibitors with promising oral bioavailability” (Eur J Med Chem, 2022)
